Results as given in BindingDB's records for doi:10.1021/jm00046a020 (Purdue University, 1994).
pIC50: −log10 of the molar value.

Target: Tyrosine-protein kinase transforming protein Src (Rous sarcoma virus)
Test: Inhibition of in vitro protein-tyrosine kinase activity of p60v-src enzyme in presence of 5 uM ATP.

Row | SMILES | pIC50
1 | Nc1cccc(-c2cc(=O)c3c(N)c(O)c(N)cc3o2)c1 [5,7-Diamino-2-(3-amino-phenyl)-6-hydroxy-chromen-4-one] | 4.42
2 | Nc1ccc(-c2cc(=O)c3c(N)c(O)c(N)cc3o2)cc1 [5,7-Diamino-2-(4-amino-phenyl)-6-hydroxy-chromen-4-one] | < 4.30
3 | Nc1ccc(-c2cc(=O)c3cc(N)c(O)c(N)c3o2)cc1 [6,8-Diamino-2-(4-amino-phenyl)-7-hydroxy-chromen-4-one] | < 4.30
4 | Nc1ccc(-c2cc(=O)c3cc(N)cc(N)c3o2)cc1 [6,8-Diamino-2-(4-amino-phenyl)-chromen-4-one] | < 4.30
5 | Nc1cccc(-c2cc(=O)c3cc(N)c(O)cc3o2)c1 [6-Amino-2-(3-amino-phenyl)-7-hydroxy-chromen-4-one] | < 4.30
6 | Nc1cccc(-c2cc(=O)c3cc(N)ccc3o2)c1 [6-Amino-2-(3-amino-phenyl)-chromen-4-one] | < 4.30
7 | Nc1ccc(-c2cc(O)c3c(=O)c(N)ccc-3o2)cc1 [6-Amino-2-(4-amino-phenyl)-5-hydroxy-chromen-4-one] | < 4.30
8 | Nc1ccc(-c2cc(=O)c3cc(N)c(O)cc3o2)cc1 [6-Amino-2-(4-amino-phenyl)-7-hydroxy-chromen-4-one] | < 4.30
9 | Nc1ccc(-c2cc(=O)c3cc(N)ccc3o2)cc1 [6-Amino-2-(4-amino-phenyl)-chromen-4-one] | 4.54
10 | Nc1ccc(-c2cc(=O)c3c(O)ccc(N)c3o2)cc1 [8-Amino-2-(4-amino-phenyl)-5-hydroxy-chromen-4-one] | < 4.30
11 | Nc1ccc(-c2cc(=O)c3cc(O)cc(N)c3o2)cc1 [8-Amino-2-(4-amino-phenyl)-6-hydroxy-chromen-4-one] | < 4.30
12 | COc1cc(N)c2oc(-c3ccc(N)cc3)cc(=O)c2c1 [8-Amino-2-(4-amino-phenyl)-6-methoxy-chromen-4-one] | < 4.30
13 | Nc1ccc(-c2cc(=O)c3ccc(O)c(N)c3o2)cc1 [8-Amino-2-(4-amino-phenyl)-7-hydroxy-chromen-4-one] | < 4.30
14 | Nc1ccc(-c2cc(=O)c3cccc(N)c3o2)cc1 [8-Amino-2-(4-amino-phenyl)-chromen-4-one] | < 4.30
